Source: patent US9499550B2 (BRISTOL-MYERS SQUIBB COMPANY, priority 2012, dated 2016)
Read-outs that look alike come from different tables or passages of the source.

Tests used:
[1] = tested on: HCV genotype 1b (Con1) replicon in HUH-7 cells; assay: HCV replicon luciferase reporter assay, genotype 1b; format: cell-based; details: Hepatitis C virus, Huh-7, 72 h, 3 days incubation
Outline: (§1)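 Replicon inhibition for both genotypes was measured as Renilla luciferase signal (EnduRen, 7.5 μM final, 2 h) after 3-day, 37° C exposure of replicon-bearing HUH-7 cells in 4% FCS DMEM, 0.5% DMSO. The 1b construct carries S1179I; the 1a H77 construct carries P1496L and S2204I. Twenty-point, 3-fold dilutions were fitted four-parametrically for EC50, and CC50 was taken from multiplexed Cell Titer-Blue.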

[2] = tested on: HCV genotype 1a (H77 strain) replicon in HUH-7 cells; assay: HCV replicon luciferase reporter assay, genotype 1a; format: cell-based; details: Hepatitis C virus, Huh-7, 72 h, 3 days incubation
Outline: as §1

[3] = HCV genotype 1b replicon luciferase, read-out: LE_1b (EC50, range)
[4] = HCV genotype 1a replicon luciferase, read-out: LE_1a (EC50, range)
[5] = GETYPE1B, HCV genotype 1b replicon luciferase, read-out: LE_1b (EC50, range)
[6] = GETYPE1A, HCV genotype 1a replicon luciferase, read-out: LE_1a (EC50, range)
[7] = HCV genotype 1b replicon luciferase assay, range class, read-out: LE_1b (EC50, range)
[8] = HCV genotype 1a replicon luciferase assay, range class, read-out: LE_1a (EC50, range)

C[C@@H]1CC/C=C\[C@@H]2C[C@@]2(C(=O)NS(=O)(=O)C2(C)CC2)NC(=O)[C@@H]2C[C@@H](Oc3ncnc4c(Cl)cccc34)CN2C(=O)[C@@H](NC(=O)OC(C)(C)C)[C@H](C)C1 [Compound 4145, tert-butyl (2R,6S,7R,9R,13aS,14aR,16aS,Z)-2-(8-chloroquinazolin-4-yloxy)-7,9-dimethyl-14a-(1-methylcyclopropylsulfonylcarbamoyl)-5,16-dioxo-1,2,3,5,6,7,8,9,10,11,13a,14,14a,15,16,16a-hexadecahydrocyclopropa[e]pyrrolo[1,2-a][1,4]diazacyclopentadecin-6-ylcarbamate]
EC50 [1, 3]: < 5.46 nM | EC50 [2, 4]: < 5.46 nM

COc1ccc2c(O[C@@H]3C[C@H]4C(=O)N[C@]5(C(=O)NS(=O)(=O)C6CC6)C[C@H]5/C=C\CC[C@@H](C)C[C@@H](C)[C@H](NC(=O)OC(C)(C)C(C)(F)F)C(=O)N4C3)nc(-c3ccc(OC(C)C)cn3)cc2c1 [Compound 5475, 3,3-difluoro-2-methylbutan-2-yl((2R,6S,7R,9R,13aS,14aR,16aS,Z)-14a-((cyclopropylsulfonyl)carbamoyl)-2-((3-(5-isopropoxypyridin-2-yl)-6-methoxyisoquinolin-1-yl)oxy)-7,9-dimethyl-5,16-dioxo-1,2,3,5,6,7,8,9,10,11,13a,14,14a,15,16,16a-hexadecahydrocyclopropa[e]pyrrolo[1,2-a][1,4]diazacyclopentadecin-6-yl)carbamate]
EC50 [1, 3]: 0.51 to 1 nM | EC50 [2, 4]: 0.51 to 1 nM

COc1cc2ccnc(O[C@@H]3C[C@H]4C(=O)N[C@]5(C(=O)NS(=O)(=O)C6(F)CC6)C[C@H]5/C=C\CC[C@@H](C)C[C@@H](C)[C@H](NC(=O)OCC(C)(C)C)C(=O)N4C3)c2cc1Cl [Compound 4042, neopentyl (2R,6S,7R,9R,13aS,14aR,16aS,Z)-2-(7-chloro-6-methoxyisoquinolin-1-yloxy)-14a-(1-fluorocyclopropylsulfonylcarbamoyl)-7,9-dimethyl-5,16-dioxo-1,2,3,5,6,7,8,9,10,11,13a,14,14a,15,16,16a-hexadecahydrocyclopropa[e]pyrrolo[1,2-a][1,4]diazacyclopentadecin-6-ylcarbamate]
EC50 [1, 3]: < 5.46 nM | EC50 [2, 4]: < 5.46 nM

[2H]C([2H])([2H])C(OC(=O)N[C@@H]1C(=O)N2C[C@H](Oc3nccc4c5c(ccc34)N(C)CCO5)C[C@H]2C(=O)N[C@]2(C(=O)NS(=O)(=O)C3(C)CC3)C[C@H]2/C=C\CC[C@@H](C)C[C@H]1C)(C([2H])([2H])[2H])C(F)(F)F [Compound 5298, 1,1,1,3,3,3-hexadeutero-2-(trifluoromethyl)propan-2-yl((2R,6S,7R,9R,13aS,14aR,16aS,Z)-7,9-dimethyl-2-((4-methyl-3,4-dihydro-2H-[1,4]oxazino[2,3-f]isoquinolin-7-yl)oxy)-14a-(((1-methylcyclopropyl)sulfonyl)carbamoyl)-5,16-dioxo-1,2,3,5,6,7,8,9,10,11,13a,14,14a,15,16,16a-hexadecahydrocyclopropa[e]pyrrolo[1,2-a][1,4]diazacyclopentadecin-6-yl)carbamate]
EC50 [1, 3]: < 5.46 nM | EC50 [2, 4]: < 5.46 nM

CCC1(S(=O)(=O)NC(=O)[C@@]23C[C@H]2/C=C\CC[C@@H](C)C[C@@H](C)[C@H](NC(=O)OC(C)(C)C(F)(F)F)C(=O)N2C[C@H](Oc4nccc5cc(OC)c(F)cc45)C[C@H]2C(=O)N3)CC1 [Compound 4127]
EC50 [1, 5]: < 5.46 nM | EC50 [2, 6]: 4.82 to 103 nM

C[C@@H]1CC/C=C\[C@@H]2C[C@@]2(C(=O)NS(=O)(=O)C2CC2)NC(=O)[C@@H]2C[C@@H](Oc3nc(OCC(F)F)cc4c(Cl)cccc34)CN2C(=O)[C@@H](NC(=O)O[C@H](C)C(F)(F)F)[C@H](C)C1 [Compound 1100, (R)-1,1,1-trifluoropropan-2-yl ((2R,6S,7R,9R,13aS,14aR,16aS,Z)-2-((5-chloro-3-(2,2-difluoroethoxyl)isoquinolin-1-yl)oxy)-14a-((cyclopropylsulfonyl)carbamoyl)-7,9-dimethyl-5,16-dioxo-1,2,3,5,6,7,8,9,10,11,13a,14,14a,15,16,16a-hexadecahydrocyclopropa[e]pyrrolo[1,2-a][1,4]diazacyclopentadecin-6-yl)carbamate]
EC50 [1, 7]: < 5.46 nM | EC50 [2, 8]: < 5.46 nM

COc1cnc(O[C@@H]2C[C@H]3C(=O)N[C@]4(C(=O)NS(=O)(=O)C5CC5)C[C@H]4/C=C\CC[C@@H](C)C[C@@H](C)[C@H](NC(=O)OC(C)(C)C(F)(F)F)C(=O)N3C2)c2cccc(Cl)c12 [Compound 27, 1,1,1-trifluoro-2-methylpropan-2-yl((2R,6S,7R,9R,13aS,14aR,16aS,Z)-2-((5-chloro-4-methoxyisoquinolin-1-yl)oxy)-14a-((cyclopropylsulfonyl)carbamoyl)-7,9-dimethyl-5,16-dioxo-1,2,3,5,6,7,8,9,10,11,13a,14,14a,15,16,16a-hexadecahydrocyclopropa[e]pyrrolo[1,2-a][1,4]diazacyclopentadecin-6-yl)carbamate]
EC50 [1, 7]: < 5.46 nM | EC50 [2, 8]: < 5.46 nM

CC[C@@H]1C[C@H](C)CC/C=C\[C@@H]2C[C@@]2(C(=O)NS(=O)(=O)C2(C)CC2)NC(=O)[C@@H]2C[C@@H](Oc3ncc(N4CCOCC4)c4ccccc34)CN2C(=O)[C@H]1NC(=O)OC(C)(C)C(C)(F)F [Compound 5457, 3,3-difluoro-2-methylbutan-2-yl((2R,6S,7R,9R,13aS,14aR,16aS,Z)-7-ethyl-9-methyl-14a-(((1-methylcyclopropyl)sulfonyl)carbamoyl)-2-((4-morpholinoisoquinolin-1-yl)oxy)-5,16-dioxo-1,2,3,5,6,7,8,9,10,11,13a,14,14a,15,16,16a-hexadecahydrocyclopropa[e]pyrrolo[1,2-a][1,4]diazacyclopentadecin-6-yl)carbamate]
EC50 [1, 3]: 0.51 to 1 nM | EC50 [2, 4]: 1.01 to 5 nM

[2H]C([2H])([2H])C(OC(=O)N[C@@H]1C(=O)N2C[C@H](Oc3nccc4cc(OCCC)ccc34)C[C@H]2C(=O)N[C@]2(C(=O)NS(=O)(=O)C3CC3)C[C@H]2/C=C\CC[C@H](C)C[C@H]1C)(C([2H])([2H])[2H])C(F)(F)F [Compound 5172]
EC50 [1, 3]: < 5.46 nM | EC50 [2, 4]: 4.82 to 103 nM

COc1ccc2nc(C(C)C)c(O[C@@H]3C[C@H]4C(=O)N[C@]5(C(=O)NS(=O)(=O)C6(C)CC6)C[C@H]5/C=C\CC[C@@H](C)C[C@@H](C)[C@H](NC(=O)OC(C)(C)C(F)(F)F)C(=O)N4C3)nc2c1 [Compound 4259]
EC50 [1, 5]: 0.51 to 1 nM | EC50 [2, 6]: 1.01 to 5 nM

[2H]C([2H])([2H])C(OC(=O)N[C@@H]1C(=O)N2C[C@H](Oc3nnc(OC)c4ccccc34)C[C@H]2C(=O)N[C@]2(C(=O)NS(=O)(=O)C3(C)CC3)C[C@H]2/C=C\CC[C@H](C)C[C@H]1CC)(C([2H])([2H])[2H])C(F)(F)F [Compound 5019]
EC50 ([1]; HCV genotype 1b replicon luciferase, read-out: LE_1b (EC50)): 3.65 nM | EC50 [1, 3]: < 5.46 nM | EC50 ([2]; HCV genotype 1a replicon luciferase, read-out: LE_1a (EC50)): 7.27 nM | EC50 [2, 4]: 4.82 to 103 nM

CCOc1cnc(O[C@@H]2C[C@H]3C(=O)N[C@]4(C(=O)NS(=O)(=O)C5(C)CC5)C[C@H]4/C=C\CC[C@@H](C)C[C@@H](C)[C@H](NC(=O)Oc4ccccc4)C(=O)N3C2)c2ccccc12 [Compound 4140, phenyl (2R,6S,7R,9R,13aS,14aR,16aS,Z)-2-(4-ethoxyisoquinolin-1-yloxy)-7,9-dimethyl-14a-(1-methylcyclopropylsulfonylcarbamoyl)-5,16-dioxo-1,2,3,5,6,7,8,9,10,11,13a,14,14a,15,16,16a-hexadecahydrocyclopropa[e]pyrrolo[1,2-a][1,4]diazacyclopentadecin-6-ylcarbamate]
EC50 [1, 3]: < 5.46 nM | EC50 [2, 4]: < 5.46 nM
